In patent US8093274B2, “Inhibitors of protein prenyltransferases” (The Regents of the University of California, priority 2006, dated 2012):

What was measured:
[1] = target: GGTase I (substrate RhoA) (Homo sapiens, UniProt P49354+P53609); experiment: GGTase I filter-binding assay with RhoA as substrate; assay type: biochemical
Method: The pilot library was screened for inhibitors of protein geranylgeranyltransferase type I. Protein prenyltransferase assays were carried out by using filter binding. Two different substrates, RhoA and K-Ras4B, were used for the assay. RhoA ends with the CaaL motif and is an exclusive substrate for GGTase I, while K-Ras4B ends with the CaaX motif and is modified by both GGTase I and FTase.
The % activity of GGTase I was determined as follows: a working solution that contained each compound in DMSO at the concentration of 1 mM was prepared. The working solution was added to GGTase I reaction mixture so that the final concentration of the compound is 50 μM. GGTase I activity was assayed by incubating [^3H]GGPP with K-Ras4B or RhoA protein in the presence of GGTase I and examining radioactivity incorporated into the substrate protein by spotting onto a filter paper. After washing with TCA, ethanol and acetone, the radioactivity retained on the filter was determined by the use of a scintillation counter. GGTase I activity in the presence of DMSO was taken as a 100% value and the activity in the presence of the compound was shown as percent activity compared with the 100% value. […] For 6-aryl-4-mercapto-N-sulfonyl-piperidine-3-carboxylic acid 11 the 4-mercapto substituent appeared critical to endowing GGTase inhibitory activity. […] 4-Chlorobenzylthio substituent was the next best; 12 compounds out of 21 containing the 4-chlorobenzylthio moiety were active. 4-Benzylthio substituent was also good; 7 piperidines out of 21 bearing 4-benzylthio group were active. […] 19 imines (C15>C12=C41>C40>C01=C11>C05=C10=C30=C35=C37=C38>C02, C03, C04, C06, C39=C43) out of 21 appeared in the GGTIs. […] This corresponds to 47 6-aryl-4-mercapto-N-sulfonyl-piperidine-3-carboxylic acids out of 357 compounds.
A collection of 138 heterocycles was screened for their ability to inhibit the activity of human GGTase-I to geranylgeranylate K-Ras4B or RhoA. Purified GGTase-1 was incubated with its substrate protein K-Ras4B or RhoA, [^3H]GGPP, and the 138 compounds. After 30 min, the degree of incorporation of tritiated geranylgeranyl groups was measured using a scintillation counter.
(§1) The GGTase-I assay was carried out using RhoA as a substrate protein, GGTase-I (JENA Bioscience) and [3H]geranylgeranyl pyrophosphate. Incubation was for 30 min at 37 C. GGTase-H (or RabGGTase) assay was carried out using YPT1 as a substrate protein, GGTase-H (Calbiochem, San Diego, Calif.) plus REP1 (Calbiochem) and [3H]geranylgeranyl pyrophosphate. Incubation was for 30 min at 37 C. FIGS. 20D-20F show the three dimensional structure of GGTase I (D), FTsse (E) and GGTase II (F) which can be obtained from X-ray diffraction studies of protein crystals.

[2] = target: T1, protein farnesyltransferase (FTase) (Rattus norvegicus, UniProt Q02293+Q04631); experiment: Protein farnesyltransferase assay with K-Ras4B and [3H]FPP; assay type: biochemical
T1 construct: purchased JENA Bioscience
Excerpt: To further characterize the pilot library, inhibitors of protein farnesyltransferase were identified. This was accomplished by using K-Ras4B as a substrate protein, tritiated farnesylpyrophosphate ([^3H]FPP) and protein farnesyltransferase. See Finegold, A. A., Johnson, D. I., Farnsworth, C. C., Gelb, M. H., Judd, S. R., Glomset, J. A. and Tamanoi, F. (1991) Protein geranylgeranyltransferase of Saccharomyces cerevisiae is specific for Cys-Xaa-Xaa-Leu motif and requires the CDC43 gene product but not the DPRI gene product. Proc. Natl. Acad. Sci. USA 88, 4448-4452. […] On the other hand, the structure of the compounds P1-F11, P2-B7 and P2-E9 resemble those of GGTIs. The FTI P1-F11 resembles the GGTI P1-F10, while the FTI P2-B7 resembles the GGTI P2-C10. The FTI P2-E9 is similar to the GGTI P2-G3. Similarity of some GGTI and FTI compounds may point to common structural features between the two closely related enzymes. As described before, FTase and GGTase I have similar three-dimensional structures and a shared alpha subunit. On the other hand, FTase specific inhibitors may recognize a region(s) that is different between the two enzymes.
Varying concentrations of the two compounds were added to each enzyme reaction. The FTase (protein farnesyltransferase) assay was carried out using K-Ras4B as a substrate protein, FTase (JENA Bioscience, San Diego, Calif.) and […] pyrophosphate. Incubation was for 30 min at 37 C.

GGTase-I = GGTase-I inhibition kinetics, double reciprocal plots; assay type: biochemical; details: varying GGPP with fixed RhoA
Method: as §1
The graphs in FIG. 21 show double reciprocal plots obtained from substrate velocity curves for the inhibition of GGTase-I by P3-E5 (left) and P5-H6 (right). The upper figures show varying GGPP concentrations with a fixed RhoA protein concentration were used. The lower figures show varying RhoA protein concentrations with a fixed GGPP concentration was used. The following scale was used to prepare the graphs: Y-axis: 1/v, fmol/min. X-axis: 1/s, mM.

[3] = system: geranylgeranylated Rheb (Rheb-CSVL) in HEK 293 cells; experiment: Geranylgeranylation of Rheb-CVSL in HEK 293 cells, mobility shift on Western blot; assay type: cell-based, human; details: for inhibition of geranylgeranylation of Myc-HA tagged-Rheb-CVSL in cells: HEK 293 cells treated for 48 hours
Excerpt: Finally, we investigated in vivo effects of compounds 22 (also known as UC-22) and 23 (also known as UC-23). Human embryonic kidney (HEK) 293 cells were transfected with the Rheb-CSVL construct that expresses the geranylgeranylated form of the Rheb protein. Inhibition of the geranylgeranylation of this protein can be detected from a shift in its mobility on SDS polyacrylamide gel; the unprocessed form appears as a slowly migrating band.
Human embryonic kidney (HEK) 293 cells expressing Myc-HA tagged-Rheb-CVSL (upper) or Myc-HA tagged-Rheb-WT (lower) were treated with P3-E5 for 48 hours and then lysed. The cell lysates were run on a SDS polyacrylamide gel and immunoblotted using anti-Myc or anti-Actin antibody. The descriptors P and U indicate processed and unprocessed Rheb, respectively.
Human embryonic kidney (HEK) 293 cells expressing Myc-HA tagged-Rheb-CVSL (upper) or Myc-HA tagged-Rheb-WT (lower) were treated with mP5-H6a (also referred to as mP5-H6), or GGTI-298 for 48 hours and then lysed. Lysates were run on a SDS polyacrylamide gel and immunoblotted with anti-Myc or anti-Actin antibody.

K562 cells [4] = experiment: Proliferation of K562 cells, cell counting kit-8; assay type: cell-based, human; details: 72 hours; relative to DMSO control
Method: (§2) K562 cells are a cell line of human erythroleukemia cells. The K562 cells were treated with P3-E5, P5-H6 or GGTI-298 (a known GGTI compound illustrated in FIG. 27) for 72 hours and then cell number was counted using cell counting kit-8 (Dojindo, Gaithersburg, Md.). Cell viability relative to the DMSO control and the known GGTI compound is plotted in FIG. 23.

K562 cells [5] = experiment: Cell cycle profile of K562 cells by flow cytometry; assay type: cell-based, human; details: 48 hours; 0 to 10 mM
Method: K562 cells were treated with indicated concentrations (mM) of P3-E5 (ranging from […]) or GGTI-298 (ranging from […]) for 48 hours. Cell cycle profiles were monitored by flow cytometry. Percentages of cells in each phase of the cell cycle are indicated by different colors. Red: G0/G1 phase. Black: S phase. Gray: G2/M phase.

Panc-1 cells = experiment: Proliferation of Panc-1 cells; assay type: cell-based, human
Method: as §2
(§3) Panc-1 cells (Pancreatic cancer cell line) and Jurkat cells (T-cell leukemia) were treated with 12.5 μM of P5-H6 or 12.5 μM of mP5-H6a for 72 hours. The cell number was counted as described in Example 5.

Jurkat cells = experiment: Proliferation of Jurkat cells; assay type: cell-based, human
Method: as §2, §3

BT474 = experiment: Proliferation of BT474 cells; assay type: cell-based, human
MDA-MB231 = experiment: Proliferation of MDA-MB231 cells; assay type: cell-based, human
MiaPaCa2 = experiment: Proliferation of MiaPaCa2 cells; assay type: cell-based, human

For Cc1ccccc1S(=O)(=O)N1[C@@H](c2cccc(Cl)c2)C(C(=O)O)=CC[C@H]1c1ccc(Cl)cc1 (relative stereo) [P3-E5], the IC50 ([1]; FIG. 15, read-out: IC50 for the inhibition of GGTase I using RhoA as a substrate) was 7 µM, the “specificity of GGTase I inhibition” value ([1]; compared with FTase and GGTase-II, varying concentrations, FIGS. 20A-20C) was “specifically inhibit GGTase I” and the “inhibition of FTase activity” value ([2]; FIG. 16, concentration increased to 100 μM) was “no inhibition of FTase activity was observed”. For the same molecule, the “inhibition of FTase” value ([2]; at concentrations at which they inhibited GGTase-I by more than 90%) was “did not inhibit FTase”, the “mode of inhibition of GGTase-I” value (GGTase-I) was “compete with a substrate protein but do not compete with GGPP” and the “inhibition of geranylgeranylation of Myc-HA tagged-Rheb-CVSL in cells” value [3] was “inhibits geranylgeranylation in cells”. The “inhibition of geranylgeranylation of Rheb-CSVL within the cell” value ([3]; HEK 293 cells, FIG. 33) was “inhibit geranylgeranylation within the cell”, the “inhibition of proliferation of K562 cells” value (K562 cells [4]) was “inhibit proliferation of K562 cells” and the “cell cycle effect in K562 cells” value (K562 cells [5]) was “induces G1 arrest in K562 cells”.
COC(=O)[C@H](Cc1ccccc1)NCC(=O)OCC1=C[C@@H](C(C)(C)C)N(S(=O)(=O)c2ccccc2C)C1c1ccc(Cl)cc1 (some centres unmarked) [mP5-H6] was tested, and the “inhibition of geranylgeranylation of Myc-HA tagged-Rheb-CVSL in cells” value [3] was “inhibits geranylgeranylation in vivo”, the “inhibition of proliferation of pancreatic cancer cell line Panc-I” value (Panc-1 cells) was “inhibits proliferation” and the “inhibition of growth of Panc-1 cells relative to P5-H6” value (Panc-1 cells; 12.5 μM, 72 hours) was “inhibits the growth of Panc-1 cells and Jurkat cells better than P5-H6”. For the same molecule, the “inhibition of proliferation of leukemic cell line Jurkat” value (Jurkat cells) was “inhibits proliferation”, the “inhibition of growth of Jurkat cells relative to P5-H6” value (Jurkat cells; 12.5 μM, 72 hours) was “inhibits the growth of Panc-1 cells and Jurkat cells better than P5-H6” and the “inhibition of proliferation of breast cancer cell line BT474” value (BT474) was “inhibits proliferation”. For the same molecule, the “inhibition of proliferation of breast cancer cell line MDA-MB231” value (MDA-MB231) was “inhibits proliferation” and the “inhibition of proliferation of pancreatic cancer cell line MiaPaCa2” value (MiaPaCa2) was “inhibits proliferation”.
